The results in this text go back to ChEMBL document CHEMBL4184267, “Novel naftopidil derivatives containing methyl phenylacetate and their blocking effects on α1D/1A-adrenoreceptor subtypes” (Bioorg Med Chem Lett, 2018).

Experiment [1] concerns the target T1, Alpha-1A adrenergic receptor (Rattus norvegicus, UniProt P43140).
T1 sequence (P43140 whole entry): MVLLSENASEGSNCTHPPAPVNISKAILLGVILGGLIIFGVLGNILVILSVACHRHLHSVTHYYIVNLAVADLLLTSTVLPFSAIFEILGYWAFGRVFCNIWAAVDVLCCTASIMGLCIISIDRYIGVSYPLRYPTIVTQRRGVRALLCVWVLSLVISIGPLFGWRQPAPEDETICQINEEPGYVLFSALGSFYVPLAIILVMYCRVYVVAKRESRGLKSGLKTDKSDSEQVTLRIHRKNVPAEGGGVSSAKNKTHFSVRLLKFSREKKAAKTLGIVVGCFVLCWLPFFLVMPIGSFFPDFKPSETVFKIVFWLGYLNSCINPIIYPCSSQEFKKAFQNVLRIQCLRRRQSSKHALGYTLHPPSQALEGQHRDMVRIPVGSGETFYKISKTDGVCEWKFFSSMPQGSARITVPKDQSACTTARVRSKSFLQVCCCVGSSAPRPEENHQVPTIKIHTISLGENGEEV
Nature of the experiment: Antagonist activity at alpha1A-adrenoreceptor in Sprague-Dawley rat vas deferens assessed as relaxation of (-)-noradrenaline-induced contractile response. It counts as functional. As to conditions: read-out: pA2 (converted).

Experiment [2] has as its target T2, Alpha-1B adrenergic receptor (Rattus norvegicus, UniProt P15823).
T2 sequence (P15823 whole entry): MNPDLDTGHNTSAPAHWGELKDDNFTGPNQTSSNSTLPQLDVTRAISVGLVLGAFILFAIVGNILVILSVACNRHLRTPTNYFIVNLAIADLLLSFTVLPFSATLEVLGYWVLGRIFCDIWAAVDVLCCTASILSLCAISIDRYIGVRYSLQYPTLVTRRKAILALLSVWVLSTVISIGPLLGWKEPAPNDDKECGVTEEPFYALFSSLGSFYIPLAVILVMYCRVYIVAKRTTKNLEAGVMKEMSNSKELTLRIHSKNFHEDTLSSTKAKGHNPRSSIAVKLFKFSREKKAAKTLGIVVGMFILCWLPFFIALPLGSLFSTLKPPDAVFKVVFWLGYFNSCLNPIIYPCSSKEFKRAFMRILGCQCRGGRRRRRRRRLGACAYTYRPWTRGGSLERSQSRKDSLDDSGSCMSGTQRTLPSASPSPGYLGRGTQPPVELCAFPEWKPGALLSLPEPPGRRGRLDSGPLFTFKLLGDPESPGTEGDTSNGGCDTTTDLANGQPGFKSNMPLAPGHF
Put plainly: Antagonist activity at alpha1B-adrenoreceptor in Sprague-Dawley rat spleen assessed as relaxation of (-)-noradrenaline-induced contractile response. Conditions: read-out: pA2 (converted). In kind it is functional.

In experiment [3] the target is T3, Alpha-1D adrenergic receptor (Rattus norvegicus, UniProt P23944).
T3 sequence (P23944 whole entry): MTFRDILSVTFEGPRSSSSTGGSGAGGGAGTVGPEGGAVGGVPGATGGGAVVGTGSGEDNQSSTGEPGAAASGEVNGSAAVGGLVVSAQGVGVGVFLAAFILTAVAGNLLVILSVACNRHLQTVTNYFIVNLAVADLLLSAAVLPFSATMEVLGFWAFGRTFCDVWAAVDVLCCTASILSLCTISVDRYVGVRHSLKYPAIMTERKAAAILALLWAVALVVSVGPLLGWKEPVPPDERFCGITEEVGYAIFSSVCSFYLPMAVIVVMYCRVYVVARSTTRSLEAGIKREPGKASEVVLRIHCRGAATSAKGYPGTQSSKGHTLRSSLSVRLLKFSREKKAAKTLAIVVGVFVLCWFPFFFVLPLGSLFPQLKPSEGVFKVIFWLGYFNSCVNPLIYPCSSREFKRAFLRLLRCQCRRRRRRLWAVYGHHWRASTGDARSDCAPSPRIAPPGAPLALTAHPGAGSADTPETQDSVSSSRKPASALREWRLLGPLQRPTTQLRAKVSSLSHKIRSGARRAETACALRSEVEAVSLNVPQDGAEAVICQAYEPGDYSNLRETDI
Nature of the experiment: Antagonist activity at alpha1D-adrenoreceptor in Sprague-Dawley rat thoracic aorta assessed as relaxation of (-)-noradrenaline-induced contractile response. In kind it is functional. Conditions: read-out: pA2 (converted).

Experiment [4] relates to Thoracic aorta. Nature of the experiment: Vasodilatory activity in New Zealand White rabbit thoracic aorta assessed as relaxation of (-)-noradrenaline-induced contractile response at 0.1 uM relative to untreated control. It counts as functional, Oryctolagus cuniculus. Details: scale not given: the % may be the effect or the level left.
For experiment [5], the system named is Thoracic aorta. Nature of the experiment: Vasodilatory activity in New Zealand White rabbit thoracic aorta assessed as relaxation of (-)-noradrenaline-induced contractile response at 1 uM relative to untreated control. In kind it is functional, Oryctolagus cuniculus. Details: scale not given: the % may be the effect or the level left.
Experiment [6] deals with Thoracic aorta. Put plainly: Vasodilatory activity in New Zealand White rabbit thoracic aorta assessed as relaxation of (-)-noradrenaline-induced contractile response at 10 uM relative to untreated control. In kind it is functional, Oryctolagus cuniculus. Details: scale not given: the % may be the effect or the level left.
Experiment [7] has as its target T4, Alpha-1B adrenergic receptor (Homo sapiens, UniProt P35368).
T4 sequence (P35368 whole entry): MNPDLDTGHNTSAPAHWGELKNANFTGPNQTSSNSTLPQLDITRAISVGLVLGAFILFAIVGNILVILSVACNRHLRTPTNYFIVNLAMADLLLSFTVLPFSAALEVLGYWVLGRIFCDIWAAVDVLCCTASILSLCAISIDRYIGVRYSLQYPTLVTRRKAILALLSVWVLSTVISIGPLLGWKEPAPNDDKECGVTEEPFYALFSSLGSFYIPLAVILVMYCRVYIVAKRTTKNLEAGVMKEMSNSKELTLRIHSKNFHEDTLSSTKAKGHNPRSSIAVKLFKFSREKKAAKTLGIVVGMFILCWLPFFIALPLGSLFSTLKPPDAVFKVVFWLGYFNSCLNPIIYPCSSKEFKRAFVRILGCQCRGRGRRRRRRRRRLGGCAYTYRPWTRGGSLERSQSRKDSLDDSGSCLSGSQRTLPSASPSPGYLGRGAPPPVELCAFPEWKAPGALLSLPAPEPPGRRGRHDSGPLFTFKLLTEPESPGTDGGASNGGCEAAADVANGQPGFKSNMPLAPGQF
Nature of the experiment: Displacement of [125I-HEAT from human alpha1B-adrenoreceptor expressed in CHOK1 cell membranes incubated for 60 mins. (In general: In a radioligand displacement assay an active substance lowers the binding of a labelled ligand.)

Experiment [8] concerns the target T5, Alpha-1D adrenergic receptor (Homo sapiens, UniProt P25100).
T5 sequence (P25100 whole entry): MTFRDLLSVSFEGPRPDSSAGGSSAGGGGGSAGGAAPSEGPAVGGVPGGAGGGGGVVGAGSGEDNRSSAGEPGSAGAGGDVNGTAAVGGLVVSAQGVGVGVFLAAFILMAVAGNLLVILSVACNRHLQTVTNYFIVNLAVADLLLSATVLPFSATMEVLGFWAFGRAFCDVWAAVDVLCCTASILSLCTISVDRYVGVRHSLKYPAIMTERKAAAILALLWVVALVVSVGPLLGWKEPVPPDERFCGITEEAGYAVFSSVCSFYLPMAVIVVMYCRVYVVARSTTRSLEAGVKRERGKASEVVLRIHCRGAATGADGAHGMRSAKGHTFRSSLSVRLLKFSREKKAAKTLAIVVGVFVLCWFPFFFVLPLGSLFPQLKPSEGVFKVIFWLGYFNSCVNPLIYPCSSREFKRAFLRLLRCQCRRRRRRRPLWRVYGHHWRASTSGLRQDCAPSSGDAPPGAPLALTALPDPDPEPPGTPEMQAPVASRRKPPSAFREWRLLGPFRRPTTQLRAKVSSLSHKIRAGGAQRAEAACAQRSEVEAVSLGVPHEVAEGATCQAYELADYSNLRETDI
Nature of the experiment: Displacement of [125I-HEAT from human alpha1D-adrenoreceptor expressed in CHOK1 cell membranes incubated for 60 mins.

Take `COC(=O)Cc1ccc(OC[C@H](O)CN2CCN(c3cc(C)ccc3C)CC2)cc1`: the Kb was 63.1 nM in experiment [1], 447 nM in experiment [2] and 38 nM in experiment [3].
For `COC(=O)Cc1ccc(OCC(O)CN2CCN(c3ccc(C)cc3C)CC2)cc1` (stereo not drawn), the Activity turned out to be 13.7% in the experiment with Thoracic aorta [4], 43.3% in the experiment with Thoracic aorta [5] and 92.7% in the experiment on Thoracic aorta [6].
For the compound `COC(=O)Cc1ccc(OCC(O)CN2CCN(c3cccc(C)c3C)CC2)cc1` (stereo not drawn), the values for the Activity with Thoracic aorta [4], in the experiment on Thoracic aorta [5] and in the experiment with Thoracic aorta [6] were 12.5%, 43.3% and 81.7%, respectively.
Take `COC(=O)Cc1ccc(OCC(O)CN2CCN(c3ccc(C)cc3)CC2)cc1` (stereo not drawn): the figures for the Activity in the experiment with Thoracic aorta [4], with Thoracic aorta [5] and in the experiment with Thoracic aorta [6] were 15.3%, 28.7% and 56.7%, respectively.
With `COC(=O)Cc1ccc(OCC(O)CN2CCN(c3cccc(C)c3)CC2)cc1` (stereo not drawn), the results for the Activity in the experiment on Thoracic aorta [4], with Thoracic aorta [5] and in the experiment on Thoracic aorta [6] were 14.8%, 36.9% and 63.5%, respectively.
Consider `COC(=O)Cc1ccc(OCC(O)CN2CCN(c3ccc(C)c(C)c3)CC2)cc1` (stereo not drawn), for which the values for the Activity in the experiment on Thoracic aorta [4], in the experiment with Thoracic aorta [5] and in the experiment on Thoracic aorta [6] were 8.9%, 28.4% and 70.2%, respectively.
In the case of `COc1ccccc1N1CCN(CC(O)COc2cccc3ccccc23)CC1` (stereo not drawn) [NAFTOPIDIL], the Activity in the experiment on Thoracic aorta [4] is 25.1%; in the experiment on Thoracic aorta [5], 86.9%; with Thoracic aorta [6], 97.8%. For the same compound, the inhibitory constant (Ki) (commonly the equilibrium dissociation constant of an inhibitor or competing ligand from its target) is 20 nM in experiment [7] and 1.2 nM in experiment [8].
Regarding `COC(=O)Cc1ccc(OCC(O)CN2CCN(c3ccccc3C)CC2)cc1` (stereo not drawn), the Activity in the experiment on Thoracic aorta [4] is listed as 27.3%; in the experiment on Thoracic aorta [5], 62.3%; with Thoracic aorta [6], 99.3%. Further, the Kb is 490 nM in experiment [1], 324 nM in experiment [2] and 20 nM in experiment [3].
Consider `COC(=O)Cc1ccc(OCC(O)CN2CCN(c3cccc(OC)c3)CC2)cc1` (stereo not drawn), for which the Activity in the experiment with Thoracic aorta [4] stood at 13%; with Thoracic aorta [5], 23.7%; in the experiment with Thoracic aorta [6] it was 39.8%.
On to `COC(=O)Cc1ccc(OCC(O)CN2CCN(c3ccccc3OC)CC2)cc1` (stereo not drawn), for which the Activity in the experiment on Thoracic aorta [4] worked out at 27.6%; in the experiment on Thoracic aorta [5], 71.1%; with Thoracic aorta [6], 100%. In addition, the values for the Kb in experiment [1], in experiment [2] and in experiment [3] were 148 nM, 603 nM and 77.6 nM, respectively.
Regarding `COC(=O)Cc1ccc(OCC(O)CN2CCN(c3cc(C)ccc3C)CC2)cc1` (stereo not drawn), the Activity was determined as 24.3% with Thoracic aorta [4], 66.2% in the experiment with Thoracic aorta [5] and 100% in the experiment with Thoracic aorta [6]. The Kb in experiment [1] is 38.9 nM; in experiment [2], 759 nM; in experiment [3], 44.7 nM.
Take `CCOc1cccc(N2CCN(CC(O)COc3ccc(CC(=O)OC)cc3)CC2)c1` (stereo not drawn): the Activity is recorded as 6.1% in the experiment on Thoracic aorta [4], 10.2% with Thoracic aorta [5] and 14.9% in the experiment on Thoracic aorta [6].
In the case of `COC(=O)Cc1ccc(OCC(O)CN2CCN(c3ccc(C)c(Cl)c3)CC2)cc1` (stereo not drawn), the Activity turned out to be 19.5% in the experiment with Thoracic aorta [4], 25.9% in the experiment with Thoracic aorta [5] and 38.7% with Thoracic aorta [6].
`COC(=O)Cc1ccc(OCC(O)CN2CCN(c3ccccc3Cl)CC2)cc1` (stereo not drawn): the Activity in the experiment on Thoracic aorta [4] worked out at 29%; with Thoracic aorta [5], 58.7%; in the experiment with Thoracic aorta [6] it was 98.3%.
For `COC(=O)Cc1ccc(OC[C@@H](O)CN2CCN(c3cc(C)ccc3C)CC2)cc1`, the Kb in experiment [1] was 30.2 nM; in experiment [2], 269 nM; in experiment [3], 15.5 nM.
On to `COC(=O)Cc1ccc(OCC(O)CN2CCN(c3ccc(Br)cc3)CC2)cc1` (stereo not drawn), for which the Activity in the experiment on Thoracic aorta [4] amounted to 7.9%; in the experiment with Thoracic aorta [5] it was 16.6%; in the experiment with Thoracic aorta [6], 43.5%.
For `COC(=O)Cc1ccc(OCC(O)CN2CCN(c3cc(Cl)c(OC)cc3OC)CC2)cc1` (stereo not drawn), the Activity in the experiment on Thoracic aorta [4] came out at 8.2%; with Thoracic aorta [5], 20.4%; with Thoracic aorta [6] it was 46.1%.
As to `COC(=O)Cc1ccc(OCC(O)CN2CCN(c3cc(C)cc(C)c3)CC2)cc1` (stereo not drawn), the figures for the Activity in the experiment on Thoracic aorta [4], in the experiment with Thoracic aorta [5] and in the experiment on Thoracic aorta [6] were 5.8%, 18.6% and 61.4%, respectively.
In the case of `COC(=O)Cc1ccc(OCC(O)CN2CCN(c3ccc(OC)cc3)CC2)cc1` (stereo not drawn), the Activity in the experiment with Thoracic aorta [4] is given as 6.3%; in the experiment with Thoracic aorta [5] it was 7%; with Thoracic aorta [6], 15.8%.
